# Measured values taken from US20140024716A1, “Composition Comprising S-Allyl-L-Cysteine as Active Ingredient for Preventing or Treating Gastrointestinal Disorders” (PHARMAKING CO., LTD., priority 2009, published 2014).
# “Also recorded” adds a separate entry of the source.
# What was measured:
# [1] = tested on: H. pylori ATCC 43504; test: Serum anti-H. pylori IgG (ELISA) in Helicobacter pylori-infected mice; type: in vivo, C57BL/6 mice
# Method: S-allyl-L-Cysteine (SAC) was purchased from TCI Chemical Co. (Tokyo, Japan). Helicobacter pylori was American Type Culture Collection (ATCC) 43504 (cagA+, vacA s1-ml type) and cultured in a Mueller Hinton-Agar broth at 37° C. for 48 hours, under 5% CO2 microaerophilic conditions with a concentration of 1×10^9 CFU/ml.
# 8-week old male C57BL/6 mice were classified into 4 groups, i.e., a positive control group (to which Helicobacter pylori was administered; PC), a negative control group (to which saline was administered; NC), experimental group 1 (to which Helicobacter pylori and 200 mg/kg of SAC were administered; SAC1), and experimental group 2 (to which Helicobacter pylori and 400 mg/kg of SAC were administered; SAC2). Each group had 10 mice. White powdered SAC was diluted in tap water to concentrations of 20 mg/mL and 40 mg/mL and 10 μl/g (body weight) of the diluted SAC was orally administered to the mice of the SAC1 and SAC2 groups three times a week for 10 weeks. The mice were given free access to tap water for the entire test period. […]
# Enzyme-linked immunosorbent assay (ELISA) was used in order to identify the effect of SAC on serum anti-Helicobacter pylori antibody-formation capability. […] 100 μl of 0.2 M sulfuric acid was added thereto to terminate the reaction and absorbance was measured at 450 nm.
# [2] = tested on: Cu/Zn-SOD; test: Serum Cu/Zn-SOD level in Helicobacter pylori infection model; type: in vivo, C57BL/6 mice; conditions: for Cu/Zn-SOD level greater than that of the PC group by: serum
# Method: 8-week old male C57BL/6 mice were classified into 4 groups, i.e., a positive control group (to which Helicobacter pylori was administered; PC), a negative control group (to which saline was administered; NC), experimental group 1 (to which Helicobacter pylori and 200 mg/kg of SAC were administered; SAC1), and experimental group 2 (to which Helicobacter pylori and 400 mg/kg of SAC were administered; SAC2). Each group had 10 mice. White powdered SAC was diluted in tap water to concentrations of 20 mg/mL and 40 mg/mL and 10 μl/g (body weight) of the diluted SAC was orally administered to the mice of the SAC1 and SAC2 groups three times a week for 10 weeks. The mice were given free access to tap water for the entire test period. The Helicobacter pylori was collected with saline to a concentration of 1×10^9 CFU/mL, and 0.2 mL of the diluted Helicobacter pylori was orally administered to each mouse for 8 weeks from 2 weeks after SAC administration. The mice were fasted for 8 hours before the infection, and 0.15 mL of 0.2 M sodium bicarbonate (NaHCO3) was administered to each mouse 10 minutes before the administration of Helicobacter pylori in order to neutralize acidified stomach due to the fasting. The same amount of saline instead of the infectious substances was administered into the NC group. The mice of all groups were fed with a normal diet. After a 10-week test period, autopsies were performed on all mice, and samples of blood and internal organs were collected for tissue pathological analyses. The test was performed according to the process of FIG. 19.
# In this regard, a superoxide dismutase activity assay kit (BioVision, Mountain View, Calif., USA) was used. 20 μl of serum and 200 μl of a WST working solution as a substrate were mixed. 20 μl of an enzyme working solution was added thereto, and the mixture was maintained at 37° C. for 20 minutes. Absorbance was measured at 450 nm. A control reaction was conducted in the same manner as described above, except that 20 μl of distilled water was added thereto instead of serum. SOD activity (inhibition rate %) was calculated.
smiles,measurement,setting,value
"C=CCSC[C@H](N)C(=O)O [SAC, S-allyl-L-cysteine]","antibody titer of anti-H. pylori IgG in serum, SAC2 versus SAC1 group",[1]; 400 mg/kg versus 200 mg/kg SAC,significantly less than that in the SAC1 group
same,antibody titer of anti-H. pylori IgG in serum versus PC group,"[1]; SAC1 and SAC2 groups (200 and 400 mg/kg SAC oral, 10 weeks)",significantly less; also recorded: less than that in the PC group
same,Cu/Zn-SOD level greater than that of the PC group by,[2]; SAC1 group (200 mg/kg SAC),about 4%
same,Cu/Zn-SOD level greater than that of the PC group by,[2]; SAC2 group (400 mg/kg SAC),about 3%
same,serum Cu/Zn-SOD level versus positive control group,"[2]; SAC-administered experimental group, dose not stated",higher than that of the positive control group
